According to paper PMC4977052, “On the Utility of ToxCast™ and ToxPi as Methods for Identifying New Obesogens” (Environmental Health Perspectives, 2016):
Where two headings read alike, the source gives them in different places.

Columns and labels:
C/EBP = test system: C/EBP; set-up: method as in Knudsen et al. 2011; conditions: ToxCast Phase I 2011 release; NA = not active; ref Knudsen et al. 2011; read-out: ATGC CEBP AC50; cited from earlier work
LXRβ [1] = test system: LXRβ; set-up: method as in Knudsen et al. 2011; conditions: ToxCast Phase I 2011 release; NA = not active; ref Knudsen et al. 2011; read-out: NCGC LXR AC50; cited from earlier work
PPRE = test system: PPRE; set-up: method as in Knudsen et al. 2011; conditions: ToxCast Phase I 2011 release; NA = not active; ref Knudsen et al. 2011; read-out: ATGC PPRE AC50; cited from earlier work
GAL4-mPPARγ = molecular target: T1, GAL4-mPPARγ (Mus musculus, UniProt P37238); assay: GAL4-mPPARγ activation, transient transfection luciferase reporter in COS7 cells; assay type: cell-based; conditions: for Activation COS7 (result in words), ToxCast PPARγ list: PPARγ activation or antagonism assays (Table 1, Table S6); for Activation of GAL4-PPARγ (text): COS7, 100 μM through 0.137 μM
T1 construct: expressed in transfected cells; host or cells: COS7
T1 sequence (P37238 with tags, fused parts or gaps limits assumed): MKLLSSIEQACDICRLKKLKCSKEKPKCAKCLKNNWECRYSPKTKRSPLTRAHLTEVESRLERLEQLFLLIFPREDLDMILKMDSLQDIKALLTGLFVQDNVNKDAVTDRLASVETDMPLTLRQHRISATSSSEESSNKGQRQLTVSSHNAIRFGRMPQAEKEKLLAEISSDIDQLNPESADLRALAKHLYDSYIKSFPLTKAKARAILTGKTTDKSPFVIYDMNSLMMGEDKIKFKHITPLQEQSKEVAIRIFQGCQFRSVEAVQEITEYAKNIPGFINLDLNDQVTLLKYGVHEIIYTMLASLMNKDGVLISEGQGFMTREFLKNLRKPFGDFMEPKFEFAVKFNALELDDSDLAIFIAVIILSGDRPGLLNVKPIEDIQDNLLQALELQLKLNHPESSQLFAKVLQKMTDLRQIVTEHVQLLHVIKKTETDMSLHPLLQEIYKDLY

3T3-L1 preadipocytes [2] = assay: 3T3-L1 adipogenesis assay (lipid accumulation, adipogenic gene expression); assay type: cell-based; conditions: 0.02-20 μM, 5 days after MDI induction
How it was run: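 After 2-day MDI induction with biotin and pantothenate, 3T3-L1 cells were treated 5 days with chemicals at 0.02–20 μM (0.1% DMSO; 10 μM if toxic). Lipid read as Nile red/Hoechst fluorescence ratio; adipogenic genes by QPCR, 2^ΔΔCt versus 36b4, normalized to DMSO.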

PPARγ [3] = conditions: cited from earlier work
SREBP = test system: SREBP; set-up: method as in Knudsen et al. 2011; conditions: ToxCast Phase I 2011 release; NA = not active; ref Knudsen et al. 2011; read-out: ATGC SREBP AC50; cited from earlier work
LXRα = test system: LXRα; set-up: method as in Knudsen et al. 2011; conditions: ToxCast Phase I 2011 release; NA = not active; ref Knudsen et al. 2011; read-out: ATGT LXRα AC50; cited from earlier work
PPARγ [4] = test system: PPARγ; set-up: method as in Filer et al. 2014; conditions: PPARγ; NA = not active; ref Filer et al. 2014; read-out: NCGC Antag. AC50, 2014 Release; cited from earlier work
LXRβ [5] = test system: LXRβ; set-up: method as in Knudsen et al. 2011; conditions: ToxCast Phase I 2011 release; NA = not active; ref Knudsen et al. 2011; read-out: ATGT LXRβ AC50; cited from earlier work
3T3-L1 preadipocytes [6] = test system: 3T3-L1 preadipocytes; set-up: method as in earlier work; conditions: not tested here; ref Kanayama et al. 2005; Li et al. 2012; Chamorro-García et al. 2012; Masuno et al. 2002; cited from earlier work
DR4/LXRE = test system: DR4/LXRE; set-up: method as in Knudsen et al. 2011; conditions: ToxCast Phase I 2011 release; NA = not active; ref Knudsen et al. 2011; read-out: ATGC LXRE AC50; cited from earlier work
RXRα = conditions: ToxCast Phase I 2011 release; NA = not active; ref Knudsen et al. 2011; read-out: NCGC RXRα AC50; cited from earlier work
PPARγ [7] = conditions: ref Filer et al. 2014, cited from earlier work
Human PPARγ = conditions: cited from earlier work
COS7 cells = assay: Cytotoxicity in transfected COS7 cells measured as decreased β-galactosidase activity; conditions: African green monkey, 24 h
Procedure: pCMX-Gal4, pCMX-Gal4-mPPARγ, and pCMX-Gal4-hRXRα were previously described ([Grün et al. 2006]). Transient transfections were performed in COS7 cells as described ([Chamorro-García et al. 2012]). Briefly, COS7 cells were seeded at 15,000 cells per well in 96-well tissue culture plates in 10% calf bovine serum. The following day, cells were transfected in Opti-MEM at ~ 90% confluency. One microgram of CMX-GAL4 effector plasmid was co-transfected with 5 μg tk-(MH100)4-luciferase reporter and 5 μg of CMX-β-galactosidase transfection control plasmids in Opti-MEM® using Lipofectamine® 2000 reagent (Invitrogen™ Life Technologies, Carlsbad, CA, USA), following the manufacturer’s recommended protocol. All chemicals were solvated in dimethyl sulfoxide (DMSO). After overnight incubation, the medium was replaced with Dulbecco’s Modified Eagle Medium (DMEM; HyClone, Logan, UT, USA), 10% resin charcoal stripped fetal bovine serum (FBS) plus ligands at concentrations indicated in the figure legends for an additional 24 hr. DMSO concentration was maintained at 0.05% across all chemical treatments. Cells were lysed and assayed for luciferase and β-galactosidase activity as previously described ([Forman et al. 1995]). All transfections were performed in triplicate and reproduced in multiple experiments. Data are reported as fold induction or reduction over vehicle ([…]) controls ± SEM (standard error of the mean) using standard propagation of error ([Bevington and Robinson 2003]). […] The EC50, EC10, IC50, and IC10 values from NCGC and ToxCast™ are reported from gain AC50 and AC10 values in the ToxCast™ 2014 release ([Filer et al. 2014]).
Figure 1 ToxCast™ Chemical Activity on PPARγ. The ability of a graded dose series of ToxCast™ chemicals to (A) activate or (B) antagonize GAL4-mPPARγ was tested in transiently transfected COS7 cells. (A, B) Data points are averages of triplicate transfections (three biological replicates). […] Data are depicted as (A) fold induction or (B) reduction over vehicle (0.05% DMSO) controls ± SEM. (A) ToxCast™ chemicals were tested in 3-fold serial dilutions from 100 μM through 0.137 μM, with the final data point being 0.05% DMSO. Rosiglitazone serves as a positive control activator. (B) ToxCast™ chemicals were tested in 3-fold serial dilutions from 100 μM, in competition with 50 nM rosiglitazone (Rosi). […] (C) EC50, EC10, IC50, and IC10 values calculated from A and B are reported and compared to commercial assays (see Figure S1). Note: ATG, Attagene GAL-PPARγ activation assay; NCGC, GeneBLAzer® agonist (EC values) or antagonist (IC values) assays. Triphenyltin was previously published ([Kanayama et al. 2005]).

[8] = Cos-7 transient transfection, PPARγ or RXRα activation assays (Table 2)
[9] = ToxCast Phase I 2011 release, NA = not active, ref Knudsen et al. 2011, read-out: ATGT PPARγ AC50
[10] = PPARγ, NA = not active, ref Filer et al. 2014, read-out: ATG Agonist AC50, 2014 Release
[11] = PPARγ, NA = not active, ref Knudsen et al. 2011, read-out: ATG Agonist AC50, 2011 Release
[12] = PPARγ, NA = not active, read-out: NCGC Agonist AC50, 2014 Release
[13] = PPARγ direct binding, NA = not active, ref Filer et al. 2014, read-out: NVS Agonist AC50, 2014 Release
[14] = PPARγ direct binding, NA = not active, ref Knudsen et al. 2011, read-out: NVS Agonist AC50, 2011 Release

Row | SMILES | AC50 (LXRβ [1]) [µM] | AC50 (PPRE) [µM] | Activation COS7 (result in words), ToxPi chemicals (GAL4-mPPARγ; [8]) | Adipogenesis 3T3-L1 (result in words) (3T3-L1 preadipocytes [2]) | AC50 (PPARγ [3]; [9]) [µM] | AC50 (SREBP) [µM] | AC50 (LXRα) [µM] | AC50 (PPARγ [4]) [µM] | Activation COS7 (result in words), ToxCast PPARγ list (GAL4-mPPARγ; Cos-7 transient transfection) | AC50 (LXRβ [5]) [µM] | AC50 (PPARγ [3]; [10]) [µM] | AC50 (PPARγ [3]; [11]) [µM] | Adipogenesis 3T3-L1 (result in words), previously published (3T3-L1 preadipocytes [6]) | further results
1 | C=CCC1=C(C)C(OC(=O)C2C(C=C(C)C)C2(C)C)CC1=O (mixture of isomers) [d-cis,trans-Allethrin] | 11.9 | 36 | Inactive | Negative | 36 | 48 | – | – | – | – | – | – | – | AC50 (C/EBP): 25 µM
2 | Cc1nn(C)c(Oc2ccccc2)c1C=NOCc1ccc(C(=O)OC(C)(C)C)cc1 [(Z,E)-Fenpyroximate] | 6.9 | 0.065 | Inactive | Negative | – | – | 4.3 | 35.9 | Inactive | 8.8 | 2.4 | 8.6 | – | –
3 | CC(C)(c1ccc(O)cc1)c1ccc(O)cc1 [Bisphenol A] | – | 37 | Inactive | – | 27 | – | – | – | – | – | – | – | Positive | –
4 | COP(=S)(OC)Oc1ccc(SC)c(C)c1 [Fenthion] | – | 18 | Inactive | Negative | 36 | – | 33 | – | – | 37 | – | – | – | AC50 (DR4/LXRE): 34 µM
5 | C[Si](Cn1cncn1)(c1ccc(F)cc1)c1ccc(F)cc1 [Flusilazole] | – | 46 | Inactive | Positive | 51 | 20 | – | – | – | – | – | – | – | –
6 | C=CCOC(Cn1ccnc1)c1ccc(Cl)cc1Cl (stereo not drawn) [Imazalil] | – | – | Inactive | Negative | 73 | – | – | – | – | – | – | – | – | AC50 (RXRα): 3.2 µM
7 | C#CCC1=C(C)C(OC(=O)C2C(C=C(C)C)C2(C)C)CC1=O (stereo not drawn) [Prallethrin] | 16.7 | 8.4 | – | Negative | 44 | 33 | – | – | – | – | – | – | – | AC50 (C/EBP): 29 µM; Activation COS7 (result in words), ToxPi chemicals (GAL4-mPPARγ): Inactive
8 | CCOP(=S)(Oc1cnc(C(C)(C)C)nc1)OC(C)C (stereo not drawn) [Tebupirimfos] | 7.1 | – | Inactive | Positive | 43 | 31 | 30 | – | – | 22 | – | – | – | AC50 (DR4/LXRE): 9.4 µM
9 | CCCOC/C(=N\c1ccc(Cl)cc1C(F)(F)F)n1ccnc1 [Triflumizole] | – | – | – | – | – | – | – | 0.3 | PPARγ activator | – | 2.2 | 2.8 | Positive | AC50 (PPARγ [7]; [12]): 67.5 µM; AC50 (PPARγ [7]; ToxCast 2014 release, read-out: Tox21/NCGC AC50 (panel A)): 79.9 µM; AC50 (Human PPARγ; [13]): 20.8 µM; AC50 (Human PPARγ; [14]): 35 µM; AC50 (Human PPARγ; direct binding, ToxCast 2014 release, ref Filer et al. 2014, read-out: NovaScreen AC50 (panel A)): 14.1 µM; Activation of GAL4-PPARγ (text) (GAL4-mPPARγ): activated GAL-PPARγ; AC50 (GAL4-mPPARγ; Cos-7 transient transfection): 11.5 µM; Concentration at which cytotoxicity (decreased β-galactosidase activity) was observed (COS7 cells): 100 µM; AC50 (PPARγ [3]; ToxCast 2014 release, ref Filer et al. 2014, read-out: Attagene AC50 (panel A, w/o Z-Score Correction ranking)): 20.4 µM
10 | [OH-].c1cc[c]([Sn+]([c]2ccccc2)[c]2ccccc2)cc1 [Triphenyltin] | – | 0.009 | PPARγ activator | – | – | – | – | 0.02 | PPARγ activator | – | 0.02 | 0.022 | Positive | AC50 (PPARγ [7]; [12]): 21.6 µM; AC50 (Human PPARγ; [13]): 0.28 µM; AC50 (Human PPARγ; [14]): 0.54 µM; Activation of GAL4-PPARγ (text) (GAL4-mPPARγ): activated GAL-PPARγ; AC50 (GAL4-mPPARγ; read-out: Activation AC50 (PPARγ activators), Cos-7 transient transfection): 0.02 µM
